According to BindingDB's records for doi:10.7270/Q2251GJ9 (The Scripps Research Institute Molecular Screening Center, 2007):

These molecules were tested against Sphingosine 1-phosphate receptor 1 (Homo sapiens, UniProt P21453) (assay: S1P1 receptor agonists, dose response, cell-based, agonist mode, 60K MLSMR set (AID 468)). Settings: not given.
Sphingosine 1-phosphate receptor 1, sequence (P21453 whole entry): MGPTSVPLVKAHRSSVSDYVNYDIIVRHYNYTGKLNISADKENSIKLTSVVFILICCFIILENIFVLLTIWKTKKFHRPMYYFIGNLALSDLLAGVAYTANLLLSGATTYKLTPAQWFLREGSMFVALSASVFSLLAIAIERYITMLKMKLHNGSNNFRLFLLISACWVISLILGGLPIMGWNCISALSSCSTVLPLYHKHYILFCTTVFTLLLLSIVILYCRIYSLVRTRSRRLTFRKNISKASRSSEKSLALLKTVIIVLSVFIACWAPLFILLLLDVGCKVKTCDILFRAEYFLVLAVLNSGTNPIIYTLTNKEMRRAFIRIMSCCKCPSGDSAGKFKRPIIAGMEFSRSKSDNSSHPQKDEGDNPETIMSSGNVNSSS

Compound	EC50
CC(C)COC(=O)NCCOC(=O)Nc1cccc(Cl)c1 [2-(2-methylpropoxycarbonylamino)ethyl N-(3-chlorophenyl)carbamate]	6.17 µM
O=C(CSCC(=O)N1CCCCC1)Nc1nc(-c2cccs2)cs1 [2-(2-oxidanylidene-2-piperidin-1-yl-ethyl)sulfanyl-N-(4-thiophen-2-yl-1,3-thiazol-2-yl)ethanamide]	> 30 µM
CCOc1ccc(-c2nnc(-c3ccco3)o2)cc1OCC [2-(3,4-Diethoxy-phenyl)-5-furan-2-yl-[1,3,4]oxadiazole]	1.18 µM
CCOc1ccc(-c2nnc(-c3cccs3)o2)cc1OCC [2-(3,4-Diethoxy-phenyl)-5-thiophen-2-yl-[1,3,4]oxadiazole]	5.93 µM
CCOc1ccc(-c2nnc(-c3cccnc3)o2)cc1OCC [2-(3,4-diethoxyphenyl)-5-(3-pyridinyl)-1,3,4-oxadiazole]	3.28 µM
Cn1c(C(=O)N2CCc3ccccc3C2)cc2oc3ccccc3c21 [2-(3,4-dihydroisoquinolin-2(1H)-ylcarbonyl)-1-methyl-1H-[1]benzofuro[3,2-b]pyrrole]	> 30 µM
COc1ccc(-c2nc3cc(NC(=O)Cc4ccc(OC)c(OC)c4)ccc3o2)cc1 [2-(3,4-dimethoxyphenyl)-N-[2-(4-methoxyphenyl)-1,3-benzoxazol-5-yl]acetamide]	8.03 µM
O=C1C2CCCN2C(c2cccnc2)N1c1cccc(Cl)c1 (stereo not given) [2-(3-chlorophenyl)-3-(3-pyridinyl)-5,6,7,7a-tetrahydro-3H-pyrrolo[1,2-c]imidazol-1-one]	> 95.1 µM
COc1ccccc1Oc1ccc2c(c1)C(=O)N(c1cccc(O)c1)C2=O [2-(3-hydroxyphenyl)-5-(2-methoxyphenoxy)isoindole-1,3-dione]	2.36 µM
O=C(CSC1=NCCS1)Nc1ccnc2ccccc12 [2-(4,5-dihydro-1,3-thiazol-2-ylsulfanyl)-N-quinolin-4-yl-ethanamide]	2.44 µM
O=C(CSc1ncnc2c1oc1ccccc12)N1CCCc2ccccc21 [2-(4-benzofuro[3,2-d]pyrimidinylthio)-1-(3,4-dihydro-2H-quinolin-1-yl)ethanone]	> 3 µM
N#Cc1nc(-c2ccc(OCc3ccccc3)cc2)oc1NCc1cccnc1 [2-(4-benzoxyphenyl)-5-(3-pyridylmethylamino)oxazole-4-carbonitrile]	7.92 µM
CN(C)c1oc(-c2ccc(OCc3ccccc3)cc2)nc1C#N [2-(4-benzoxyphenyl)-5-(dimethylamino)oxazole-4-carbonitrile]	3.22 µM
CNc1oc(-c2ccc(OCc3ccccc3)cc2)nc1C#N [2-(4-benzoxyphenyl)-5-(methylamino)oxazole-4-carbonitrile]	3.21 µM
COc1ccccc1Oc1ccc2c(c1)C(=O)N(c1ccc(O)cc1)C2=O [2-(4-hydroxyphenyl)-5-(2-methoxyphenoxy)isoindole-1,3-dione]	0.217 µM
CCCOc1ccc(-c2nnc(-c3ccncc3)o2)cc1 [2-(4-propoxyphenyl)-5-(4-pyridyl)-1,3,4-oxadiazole]	> 95 µM
O=C(CSc1nnc(Cn2nnc3ccccc32)o1)N(Cc1ccc(F)cc1)c1ccccc1 [2-(5-Benzotriazol-1-ylmethyl-[1,3,4]oxadiazol-2-ylsulfanyl)-N-(4-fluoro-benzyl)-N-phenyl-acetamide]	5.09 µM
COC(=O)c1ccc2c(=O)n(C3CCCCC3)c(SCC#N)nc2c1 [2-(cyanomethylthio)-3-cyclohexyl-4-keto-quinazoline-7-carboxylic acid methyl ester]	9.9 µM

Compound	EC50
CCOC(=O)c1sc2nc(NC(=O)C3CCCCC3)sc2c1C [2-(cyclohexanecarbonylamino)-6-methyl-thieno[2,3-d]thiazole-5-carboxylic acid ethyl ester]	> 30 µM
CCCCNc1cc(C)nc(NCc2ccccc2)n1 [2-N-benzyl-4-N-butyl-6-methylpyrimidine-2,4-diamine]	4.83 µM
COc1ccc(-n2nnnc2S(=O)(=O)CC(=O)N2CCCCC2)cc1 [2-[1-(4-methoxyphenyl)tetrazol-5-yl]sulfonyl-1-piperidin-1-ylethanone]	5.25 µM
Cc1cc(C(=O)CSc2nc3ccccc3c(=O)n2C)c(C)n1Cc1ccc2c(c1)OCO2 [2-[2-[1-(1,3-benzodioxol-5-ylmethyl)-2,5-dimethyl-pyrrol-3-yl]-2-oxidanylidene-ethyl]sulfanyl-3-methyl-quinazolin-4-one]	5.41 µM
CCOC(=O)CN1C(=O)C(C)(C)Oc2ccc(C(=O)Nc3ccccc3OC)cc21 [2-[3-keto-6-[(2-methoxyphenyl)carbamoyl]-2,2-dimethyl-1,4-benzoxazin-4-yl]acetic acid ethyl ester]	4.29 µM
Cc1cc(N2CCN(c3nc4ccccc4s3)CC2)n2ncnc2n1 [2-[4-(5-methyl-[1,2,4]triazolo[1,5-a]pyrimidin-7-yl)-1-piperazinyl]-1,3-benzothiazole]	7.9 µM
Cc1ccc(C(C)C)c(OCc2ccc(-c3nnco3)cc2)c1 [2-[4-[(2-isopropyl-5-methyl-phenoxy)methyl]phenyl]-1,3,4-oxadiazole]	2.43 µM
O=S1(=O)C=C(Sc2nc3ccccc3s2)c2ccccc21 [2-[(1,1-dioxido-1-benzothien-3-yl)thio]-1,3-benzothiazole]	7.68 µM
COC(=O)c1sc(NC(=O)c2ccc(OC)cc2OC)nc1C [2-[(2,4-dimethoxybenzoyl)amino]-4-methyl-thiazole-5-carboxylic acid methyl ester]	9.63 µM
Cc1cc(C=c2sc3nc4ccccc4n3c2=O)c(C)n1-c1ccccn1 [2-[(2,5-dimethyl-1-pyridin-2-yl-pyrrol-3-yl)methylidene]-[1,3]thiazolo[3,2-a]benzimidazol-1-one]	0.132 µM
Cc1ccccc1-c1nnc(SCc2ccccc2F)o1 [2-[(2-fluorobenzyl)thio]-5-(2-methylphenyl)-1,3,4-oxadiazole]	1.63 µM
Cc1ccc(-c2nnc(SCc3ccccc3F)o2)cc1 [2-[(2-fluorobenzyl)thio]-5-(4-methylphenyl)-1,3,4-oxadiazole]	1.78 µM
Cc1cccc(N2CCN(C(=O)CSCc3c(C)noc3C)CC2)c1C [2-[(3,5-dimethyl-1,2-oxazol-4-yl)methylsulfanyl]-1-[4-(2,3-dimethylphenyl)piperazin-1-yl]ethanone]	4.52 µM
CCn1c(SCC(=O)Nc2nc3ccc(C)cc3s2)nc2c(c1=O)SC(C)C2 (stereo not given) [2-[(3-ethyl-4-keto-6-methyl-6,7-dihydrothieno[3,2-d]pyrimidin-2-yl)thio]-N-(6-methyl-1,3-benzothiazol-2-yl)acetamide]	5.59 µM
Clc1ccc(CSc2nnc(-c3ccncc3)o2)cc1 [2-[(4-chlorobenzyl)thio]-5-(4-pyridyl)-1,3,4-oxadiazole]	3.92 µM
Cc1cc(C(=O)CSc2nnc(-c3ccncc3)n2-c2ccccc2)c(C)n1C [2-[(4-phenyl-5-pyridin-4-yl-1,2,4-triazol-3-yl)sulfanyl]-1-(1,2,5-trimethylpyrrol-3-yl)ethanone]	2.46 µM
CC(C)OC(=O)CSc1nc(N)c(C#N)c(-c2cccs2)c1C#N [2-[(6-amino-3,5-dicyano-4-thiophen-2-yl-2-pyridinyl)thio]acetic acid propan-2-yl ester]	> 10 µM

Same assay, conditions: inactive by the depositor's call

Compound	EC50
CCOC(=O)c1ccc2nc(NC(=O)c3ccco3)sc2c1 [2-(2-furoylamino)-1,3-benzothiazole-6-carboxylic acid ethyl ester]	16.3 µM
O=S(=O)(CCSc1ccccn1)c1nc2ccccc2s1 [2-(2-pyridin-2-ylsulfanylethylsulfonyl)-1,3-benzothiazole]	10.4 µM
Cc1cc(C)n(-c2nc3ccccc3c(=O)n2OCCOc2ccccc2)n1 [2-(3,5-dimethyl-1-pyrazolyl)-3-(2-phenoxyethoxy)-4-quinazolinone]	20 µM
Clc1ccc(-c2nc3nc4ccccc4nc3n2Cc2ccco2)cc1 [2-(4-chlorophenyl)-3-(2-furanylmethyl)imidazo[4,5-b]quinoxaline]	25.3 µM
c1ccc(CSc2nnc(-c3cccs3)o2)cc1 [2-(benzylthio)-5-(2-thienyl)-1,3,4-oxadiazole]	20.9 µM
CCOc1nc(-c2ccccc2)ccc1-c1noc(-c2ccco2)n1 [2-Ethoxy-3-(5-furan-2-yl-[1,2,4]oxadiazol-3-yl)-6-phenyl-pyridine]	16.8 µM
CN1CCN(C(=O)CSc2nc(-c3cccs3)cc(-c3cccs3)c2C#N)CC1 [2-[2-(4-methylpiperazin-1-yl)-2-oxidanylidene-ethyl]sulfanyl-4,6-dithiophen-2-yl-pyridine-3-carbonitrile]	10.1 µM
Cc1cc(C(=O)CN2C(=O)c3ccccc3C2=O)c(C)n1Cc1cccs1 [2-[2-[2,5-dimethyl-1-(2-thenyl)pyrrol-3-yl]-2-keto-ethyl]isoindoline-1,3-quinone]	17.4 µM
CCOC(=O)Cc1csc(NC(=O)c2ccc(Br)s2)n1 [2-[2-[(5-bromothiophene-2-carbonyl)amino]thiazol-4-yl]acetic acid ethyl ester]	13.8 µM
CC1CCN(S(=O)(=O)c2ccc3c(c2)oc(=O)n3CC(=O)NCc2ccc3c(c2)OCO3)CC1 [2-[2-keto-6-(4-methylpiperidino)sulfonyl-1,3-benzoxazol-3-yl]-N-piperonyl-acetamide]	12.2 µM
COc1ccc(OCCCSc2ncccn2)cc1 [2-[3-(4-methoxyphenoxy)propylsulfanyl]pyrimidine]	57.3 µM
CCOC(=O)c1sc2nc(NC(=O)C(C)(C)C)sc2c1C [2-[(2,2-dimethyl-1-oxopropyl)amino]-6-methyl-5-thieno[2,3-d]thiazolecarboxylic acid ethyl ester]	12 µM
Clc1ccc(CSc2nnc(-c3ccncc3)o2)c(Cl)c1 [2-[(2,4-dichlorobenzyl)thio]-5-(4-pyridyl)-1,3,4-oxadiazole]	41.8 µM
N#Cc1nc(COc2ccc(Cl)cc2Cl)oc1N1CCN(c2ccccc2)CC1 [2-[(2,4-dichlorophenoxy)methyl]-5-(4-phenyl-1-piperazinyl)-4-oxazolecarbonitrile]	13.9 µM
Cc1ccc2nc(NC(=O)CSc3nc4c(c(=O)n3C)SC(C)C4)sc2c1 (stereo not given) [2-[(3,6-dimethyl-4-oxidanylidene-6,7-dihydrothieno[3,2-d]pyrimidin-2-yl)sulfanyl]-N-(6-methyl-1,3-benzothiazol-2-yl)ethanamide]	13.2 µM
